Measurements from patent US10393744B2, “Peptides for targeting colorectal cancer, and medical use thereof” (UNIVERSITY OF ULSAN FOUNDATION FOR INDUSTRY COOPERATION, priority 2014, dated 2019).
Entries after “also recorded” stand apart in the source; their conditions may differ.

How the values were obtained:
[1] = tested on: Radio-sensitive colorectal cancer tissue of patient (case C87); experiment: In vivo/ex vivo imaging and phage elution of Cy5.5-labeled peptide-expressing phages in mouse model transplanted with patient's colorectal cancer tissue (Example 4); set-up: species or system nude mouse; conditions: for in vivo ROI: Cy5.5 fluorescence total flux standardized to Cy5.5 dye control; for pfu/mg (concentration of eluted phages relative to weight of cancer tissue) / ex vivo ROI: extracted cancer tissue; for ex vivo ROI: standardized to Cy5.5 dye control
From the text: (§1) Then, the distributed cancer tissue was kept in a specific preservative solution and transferred directly to an animal chamber, so as to maintain a state in which the cancer tissue was not separated from a patient yet. After an NOD/SCID mouse was anesthetized via intraperitoneal injection of anesthetics, the cancer tissue was cut into pieces each having a size of 3×3 mm. Next, each of both flanks of the NOD/SCID mouse was transplanted with a piece of the cut cancer tissues, and sutured. The NOD/SCID mouse was then recovered on a heating pad for about 2 hours (conditions of the preservative solution: HBSS containing 100 IU/ml penicillin, 100 μg/ml streptomycin, 100 μg/ml gentamicin, 2.5 μg/ml amphotericin B, and 5% fetal bovine serum). After completion of the transplantation, the NOD/SCID mouse was raised until tumors were formed. Meanwhile, the formation and growth of tumors were checked at least once a week. When the transplanted cancer tissues grew to a size of at least 500 mm^3, an extraction process was performed thereon. Then, the extracted cancer tissues were each cut into pieces each having a size of 3×3 mm for subculturing. A nude mouse was anesthetized via intraperitoneal injection of anesthetics, and a piece of the cut cancer tissues was transplanted subcutaneously on the right thigh of the nude mouse. A transplantation site was changed from the flank to the thigh so that irradiation can be locally done without affecting other organs during irradiation. That is, a finally used mouse model transplanted with a patient's colorectal cancer tissue in the present invention was a mouse model established in a way that a cancer tissue that underwent subculturing four times was re-transplanted to form a cancer tissue. When the size of the cancer tissue was increased to about 250 mm^3, only the cancer tissue was irradiated with 2 grays (Gy) of radiation. After having recovery time for no longer than 24 hours, in vivo peptide screening was performed. Here, a non-irradiated population, which is a control group, was also subjected to screening in a separate manner.
(§2) In detail, regarding in vivo imaging verification, the peptide-expressing phage was amplified, and a process of linking a fluorescent probe (Cy5.5) was performed. In particular, 1 μg/μl of N-hydroxysuccinimide esters of Cy5.5 (Amersham) was added to 1 mL of bicarbonate buffer (pH 8.3) having the phage concentration of 10^12 plaque forming units (pfu), and then, in a condition where a dark environment was maintained, a phage-surface protein was linked to the Cy5.5 fluorescent probe at room temperature for 3 hours. That is, amine groups of the phage-surface protein were chemically linked to N-hydroxysuccinimide esters of the Cy5.5 fluorescent probe via a covalent bond. The peptide-expressing phages to which the Cy5.5 fluorescent probe was linked were each obtained by precipitation with 170 μl of 20% (w/v) PEG 8000/2.5 M NaCl solution and purification. To determine a proportion of the Cy5.5 fluorescent probe linked to each of the finally obtained phage samples, an IVIS spectrum imaging system (Xenogen) was used for measurement, and region of interest (ROI) values were determined using the software program of a corresponding device.
(§3) In addition, on the last day of the in vivo imaging, the cancer tissues were each extracted, to thereby obtain ex vivo images thereof.

[2] = tested on: Radio-resistant colorectal cancer tissue of patient (case C65); experiment: as above; set-up: species or system nude mouse; conditions: for in vivo ROI: Cy5.5 fluorescence total flux standardized to Cy5.5 dye control; for pfu/mg (concentration of eluted phages relative to weight of cancer tissue) / ex vivo ROI: extracted cancer tissue; for ex vivo ROI: standardized to Cy5.5 dye control
From the text: as §1, §2, §3

[3] = tested on: radio-sensitive colorectal cancer tissue (radio-sensitive case 1, other patient); experiment: In vivo imaging of B5 peptide-expressing phage in other patients' colorectal cancer tissue (Example 7); set-up: species or system mouse; conditions: other patient's radio-sensitive tissue, with and without irradiation
Protocol: (§4) In detail, by extending the crossover experiment verified in Example 4, radio-sensitive case 1 and radio-resistant case 1 regarding other colorectal cancer tissues of a patient characterized as adenocarcinoma were introduced in addition to the radio-sensitive case and the radio-resistant case of Example 1. In the same manner as in Example 4, the B5 peptide-expressing phages were amplified and a process of linking a Cy5.5 fluorescent probe was carried out. Regarding the confirmation of the targeting ability of the B5 peptide, the in vivo imaging was used for observation in the same manner as in Example 5. […] In detail, the targeting ability of the B5 peptide sequence targeting a factor inducing resistance against radiation during radiation therapy in Example 6 was also verified in other colorectal cancer tissues of a radio-resistant patient, thereby confirming the possibility of the B5 peptide sequence as a sequence that is responsive to cancer microenvironments causing induction of resistivity during radiotherapy on colorectal cancer. However, in the patients having radio-sensitive colorectal cancer, it was clearly confirmed that the B5 peptide sequence, as a peptide sequence showing no targeting ability regardless of irradiation, was a sequence selectively tracing a radio-resistant factor. […]

[4] = tested on: radio-resistant colorectal cancer tissue (radio-resistant case 1, other patient); experiment: as above; set-up: species or system mouse; conditions: other patient's radio-resistant tissue, with and without irradiation
Protocol: as §4

[5] = tested on: colorectal cancer tissue of radio-resistant case (case C65) and radio-sensitive case (case C87); experiment: Crossover in vivo imaging of B5 peptide-expressing phage in 4 populations (Example 5); set-up: species or system mouse; conditions: 4 populations (C65 and C87, irradiated and non-irradiated); tail vein injection, images until 7th day; compared with Cy5.5 dye and empty phage
Protocol: Among the various peptide-expressing phages selected from the above, the in vivo imaging was attempted again for a B5 peptide, which is a peptide sequence screened only from the irradiated population in the radio-resistant case (case C65). At the same time, to confirm the responsiveness in control groups other than the population of interest, a crossover experiment was carried out. In detail, in the presence of differences in irradiation between the radio-sensitive case and the radio-resistant case of Example 1, the in vivo imaging was carried out to determine the targeting of the B5 peptide sequence in 4 populations in total. Here, the irradiated population of case C65 was set as an experimental group while the non-irradiated population of case C65 and all the populations of case C87 were set as control groups. In the same manner as in Example 4, peptide-expressing phages were amplified and a process of linking a Cy5.5 fluorescent probe was carried out. Then, through the tail vein injection in each population, images thereof were observed until the end of the last 7th day. […]

[6] = tested on: radio-resistant colorectal cancer patient case (C65) cancer tissue; experiment: Immunohistochemical staining of extracted cancer tissues with anti-M13 antibody (Example 6); type: in vivo, mouse; conditions: cancer tissues of each population extracted after imaging
Protocol: To verify histological targeting ability of the B5 peptide sequence verified in Example 5, the imaging of the B5 peptide sequence was obtained. Then, cancer tissues of each population were extracted to prepare paraffin blocks and slices. In detail, (1) the extracted cancer tissues were immersed in a formaldehyde solution at room temperature for 24 hours in terms of for immobilization. Then, following a dehydration process, paraffin was added to the solution through penetration to form paraffin blocks. Afterwards, a microtome was used to manufacture slices having a thickness of 3 μm. To perform real immunohistological staining, (2) following a deparaffinization process performed on the slices, (3) an unmasking process was performed so that structures of various proteins immobilized to the tissue slices were recovered to restore sites where antibodies normally bind. Sequentially, (4) a blocking process was performed using a 5% BSA solution, (5) primary antibodies were bound (wherein the antibodies used herein were anti-mouse M13 IgG recognizing M13 phage capsid proteins), (6) and secondary antibodies were bound while HRP was bound. Afterwards, (7) sites where phages were present were stained using DAB development, (7) the nuclei […] were stained with hematoxylin, and (8) a dehydration process was performed thereon. […]

[7] = case C87, irradiated population (2 Gy)
[8] = case C87, non-irradiated population
[9] = case C65, non-irradiated population
[10] = case C65, irradiated population (2 Gy)

Substance	in vivo ROI [1, 7]	pfu/mg (concentration of eluted phages relative to weight of cancer tissue) [1, 7]	ex vivo ROI [1, 7]	in vivo ROI [1, 8]	pfu/mg (concentration of eluted phages relative to weight of cancer tissue) [1, 8]	ex vivo ROI [1, 8]	in vivo ROI [2, 9]	pfu/mg (concentration of eluted phages relative to weight of cancer tissue) [2, 9]	ex vivo ROI [2, 9]	in vivo ROI [2, 10]	pfu/mg (concentration of eluted phages relative to weight of cancer tissue) [2, 10]	ex vivo ROI [2, 10]	targeting ability by in vivo imaging [3]	targeting ability by in vivo imaging [4]	targeting ability by in vivo imaging (crossover experiment) [5]	histological targeting ability (immunohistochemical staining of phage) [6]
NTGSPYE [A2, 7-amino-acid loop peptide expressed on M13 phage, tested as Cy5.5-labeled phage]	1.15	4.75 pfu/mg	2.64	1.13	1.55 pfu/mg	0.77	2.04	181.48 pfu/mg	1.61	–	–	–	–	–	–	–
SHMEYPR [A1, 7-amino-acid loop peptide expressed on M13 phage, tested as Cy5.5-labeled phage]	–	–	–	1.68	74.12 pfu/mg	1.72	1.77	136.36 pfu/mg	1.27	2.27	230 pfu/mg	1.89	–	–	–	–
TPSFSKI [B5]	–	–	–	–	–	–	–	–	–	4.07	209.47 pfu/mg	2.43	did not show any targeting ability regardless of irradiation	exhibited targeting ability only in the case of irradiation	specific binding of a B5 peptide sequence only to an irradiated population in radio-resistant case; also recorded: only the irradiated population of the radio-resistant case (case C65) has exhibited excellent targeting ability	excellent targeting ability; also recorded: specifically bound only to the irradiated population in the radio-resistant colorectal cancer patient case (C65)
